Experimental data reported in patent US11471467B2, “Ruthenium complexes for treating cancer which comprises cancer stem cells” (UNIVERSIDADE DE SANTIAGO DE COMPOSTELA, priority 2016, dated 2022).

Assays:
c-MYC = c-MYC protein expression by Western blot in PDAC cells; type: cell-based
Description: FIG. 17. Effects of complex 2 (RuH2O) on pancreatic ductal adenocarcinoma (PDAC) cells.
FIG. 18. […] Western blot analysis of the expression of c-MYC in cultures 24 and 48 h after treatment with RuH2O.
(§1) On one hand, the inventors analyzed if complex 2 may increase c-MYC expression in pancreatic CSCs, and on the other hand, if the increase in c-MYC expression would negatively affect the CSC phenotype, for example, CSC self-renewal capacity. […] After having achieved a substantial increase in c-MYC expression, it was then analyzed if the CSC self-renewal capacity was affected. To that end, briefly the PDAC cells were pre-treated twice with complex 2 (RuH2O) at a concentration of 100 and 250 μM before establishing sphere cultures in […] as described in Cioffi M (Cioffi M et al. 2015 Gut 12: 1936-1948). The spheres were again treated on day 4 after sphere formation.

[1] = system: Panc185 and PancA6L cells; assay: Annexin V / DAPI staining of PDAC cells; type: cell-based
Description: FIG. 21. Cytotoxic effects of RuH2O on PDAC sphere cultures. Light micrographs and annexin-V staining of Panc185 and PancA6L cells after 72 hours of treatment with 100 μM of RuH2O.
FIG. 24. Induction of apoptosis in PDAC cells. Annexin-V staining of PDAC cells treated for 48 hours with 100 or 250 μM of RuH2O.
The effect of 100 μM of RuH2O on cultures rich in CSC was confirmed at the microscopic level and by measuring annexin V staining. […] Cell viability determined by the percentage of DAPI negative cells dropped by 50%.
To rule out the possibility that the effects mentioned above arise as a result of unspecific cytotoxic effects, adherent cultures (low in CSC) were treated for 48 hours with a single dose of RuH2O (100 or 250 μM) and their subsequent clonogenicity, self-renewal, and tumorigenicity was checked. […] The treated and untreated cells were then trypsinized and the percentage of apoptotic cells was analyzed.

Panc185 cells = assay: Tumorigenicity of pretreated PDAC cells injected subcutaneously into NOD-SCID mice; type: in vivo
Description: FIG. 22. Effects of RuH2O on PDAC sphere formation. (A) Work sequence of the experiment for evaluating the effect of RuH2O in PDAC CSC (B) Light micrographs of spheres derived from Panc185 and PancA6L cells after 10 days of treatment with 250 μM of RuH2O FIG. 23. Effects of RuH2O on PDAC tumorigenicity in vivo. Panc185 cells were pretreated with RuH2O before subcutaneous injection into NOD-SCID (non-obese diabetic, severe combined immunodeficiency) mice. Tumors were extracted 12 weeks after injection and analyzed. A) Photographs of the tumors extracted from NOD-SCID mice 12 weeks after being injected with 10^4 or 10^3 Panc185 cells and pretreated with control (CTL) or 250 μM of RuH2O. (B) Summary of the numbers of tumors detected per injection with 10^4 or 10^3 Panc185 cells and pretreated with control (CTL) or 250 μM of RuH2O. (C) Weights of the tumors extracted from NOD-SCID mice 12 weeks after being injected with 10^4 or 10^3 Panc185 cells and pretreated with control (CTL) or 250 μM of RuH2O.
FIG. 27. Tumorigenicity of PDAC cells after treatment with RuH2O. PDAC cells were treated with the indicated concentrations of RuH2O for 48 hours and then injected subcutaneously into NOD-SCID mice. Tumors were extracted 7 or 11 weeks after injection.
The spheres were then disassociated and equal numbers of control-treated cells and RuH2O-treated cells were injected subcutaneously into immunocompromised NOD-SCID mice to evaluate the tumorigenicity thereof. Twelve weeks after the injection, the tumors were extracted and weighed. […] While 4 out of 4 injections and 5 out of 6 injections with 10,000 and 1,000 control-treated cells, respectively, led to tumors, only 1 out of every 6 injections with 10,000 RuH2O-treated cells led to tumor. […] Furthermore, the only tumor that developed in the mouse injected with 10,000 RuH2O-treated cells weighed 53 times less than the tumors formed in control-treated mice (0.0058 g with respect to 0.3118 g).
(§2) The trypsinized cells were then: 1) placed in a plate at a low confluence to evaluate their clonogenicity (FIG. 25); 2) repeatedly cultured in ultra-low adherent plates in serum-free DMEM/F12 supplemented with B27 for intervals of 7 days to evaluate sphere formation capacity over multiple generations (FIG. 26); and 3) subcutaneously injected into NOD-SCID mice to check their tumorigenicity as described above (FIG. 27).
Finally, the tumorigenicity of sphere-rich CSCs was studied as described above.

PDAC cancer stem cells = assay: Sphere formation (self-renewal) of PDAC cancer stem cells; type: cell-based; conditions: for sphere formation capacity (self-renewal): PDAC cells pre-treated twice with 100 and 250 μM, treated again on day 4, against control cultures
Description: as §1
It was then evaluated if ruthenium complex 2 may negatively affect CSC phenotypes, such as self-renewal and tumorigenicity. […] During these 7 days, the samples were treated again with 250 μM of RuH2O on days 1, 3, and 5 after initiation of the spheres. […] The CSC spheres were smaller and less abundant in the RuH2O group.
as §2

[2] = system: Panc185 and PancA6L cells; assay: Clonogenicity of PDAC cells; type: cell-based; conditions: adherent cultures treated 48 hours with 100 or 250 μM, 10 days in culture
Description: FIG. 25. Clonogenicity of PDAC cells after treatment with RuH2O. (Top) Light micrographs of Panc185 and PancA6L colonies formed after 10 days in culture. The colonies were visualized with crystal violet staining. (Bottom) Colony efficiency quantification. The colonies were lysed in PBS-1% Triton-X and color intensity was measured with a plate reader.
as §2

[3] = system: guanosine monophosphate (GMP); assay: GMP binding (metallation) assay, HPLC; conditions: complex 250 μM, GMP 750 μM, 10 mM phosphate buffer pH 7.5, 100 mM NaCl
Description: High-performance liquid chromatography (HPLC) was carried out using Agilent 1100 liquid chromatography-mass spectrometer equipment. Analytical HPLC was carried out using a Phenomenex Luna-C18 reversed-phase analytical column (10×250 mm, 5 μm), 1 mL/min, with different gradients (see below). […] Electrospray ionization mass spectrometry (ESI/MS) was performed with an Agilent 1100 Series LC/MSD VL G1956A model in positive polarity mode.
First, guanosine monophosphate (GMP) metallating capacity of complex 1 was studied. To that end, complex 1 (250 μM) was mixed with 3 equivalents of GMP (750 μM) in 10 mM phosphate buffer (pH=7.5) and 100 mM NaCl.
To confirm that GMP metallation is completely orthogonal, competitive experiments were carried out with the other three nucleotides (AMP, CMP, and TMP). Specifically, complex 1 (250 μM) was mixed with GMP (3 equiv, 750 μM), AMP (3 equiv, 750 μM), TMP (3 equiv, 750 μM), and CMP (3 equiv, 750 μM) in 10 mM phosphate buffer (pH=7.5) and 100 mM NaCl.
To that end, complex 1 (250 μM) was mixed with GMP (3 equiv, 750 μM) in the presence of H-Lys(Boc)-OH (3 equiv, 750 μM) or Ac-Cys-OH (3 equiv, 750 μM) in 10 mM phosphate buffer (pH=7.5) and 100 mM NaCl.
Complex 4 (250 μM) was mixed with 3 equivalents of GMP (750 μM) in 10 mM phosphate buffer (pH=7.5) and 100 mM NaCl.

## [Ru(terpy) (bpy)H2O]^2+ [complex 2]
c-MYC; PDAC cells, 100 and 250 μM, 6, 12 or 24 hours
  c-MYC protein expression: expression of c-MYC increased after treatment
c-MYC; PDAC cells, 100 and 250 μM, 6, 12 or 24 hours, listed as Complex 2
  c-MYC protein expression: increases the expression of c-MYC
c-MYC; Panc185 and PancA6L cells, 100 μM, 24 hours after treatment
  c-MYC protein expression: increased c-MYC protein expression
c-MYC; Panc185 and PancA6L cells, 48 hours after treatment
  c-MYC protein levels: significant decrease in c-MYC protein levels
[1]; adherent cultures, 100 or 250 μM, 48 hours
  percentage of apoptotic cells: increase in the percentage of apoptotic cells was not observed
[1]; spheres, 100 μM, 72 hours
  appearance of spheres, annexin V staining: visually smaller and apoptotic
  drop of cell viability (percentage of DAPI negative cells): 50%
Panc185 cells; 1,000 sphere-derived cells pretreated with 250 μM, NOD-SCID mice, 12 weeks
  tumor formation: Tumors did not form
Panc185 cells; 10,000 pretreated cells, 12 weeks
  tumor weight, times less than control-treated: 53 times
Panc185 cells; 10,000 pretreated cells, 12 weeks, the only tumor
  tumor weight: 0.0058 g
Panc185 cells; adherent cultures treated 48 hours, injected subcutaneously into NOD-SCID mice, 7 or 11 weeks
  tumorigenicity: prevents clonogenicity, self-regeneration, and tumorigenicity
PDAC cancer stem cells
  sphere formation capacity (self-renewal): significant, dose-dependent reduction in the sphere formation capacity
PDAC cancer stem cells; listed as Complex 2
  sphere formation capacity (self-renewal): reduces the self-renewal capacity
PDAC cancer stem cells; PDAC cells, 250 μM for 24 hours, again on days 1, 3 and 5, against control
  sphere formation capacity: significant reduction in the sphere formation capacity
PDAC cancer stem cells; adherent cultures treated 48 hours with 100 or 250 μM
  self-regeneration (sphere formation over multiple generations): prevents clonogenicity, self-regeneration, and tumorigenicity
[2]
  clonogenicity: prevents clonogenicity, self-regeneration, and tumorigenicity
[3]; 30 min at room temperature in the dark
  GMP metallation, conversion to monoadduct 3: 63%
[3]; 30 min irradiation at 455 nm
  GMP metallation, conversion to monoadduct 3: complete conversion
